Values after ≈ are worked out from the molar mass of the structure shown. Values joined by “and” are separate entries in the source; they are usually repeats but may differ in a detail not shown here. Identical values can stand only once. Like-named read-outs stand apart in the source and are kept apart here.

The nature of series [1]: pKa determination (fast-UV, Sirius T3). Particulars: methanol cosolvent titration (Sirius T3 Titrator); read-out: pKa Value (Basic). In kind it is physicochemical. How it is done: The pK a value of test compounds were detected by using a fast-UV method with Sirius T3 Titrator. First, the blank calibration and Fast UV buffer calibration were performed where an empty sample vial was placed in the sample position. The buffer was fully titrated, and reference spectra were collected at all pHs. The sample was then detected with the following process: Methanol was used as a cosolvent to measure the psKa (cosolvent dissociation constant). Five μL of the compound stock solution of 10 mM was added to a sample vial. Three weight/volume ratios of methanol cosolvent were tested and the total starting volume for titration was set to 1.5 mL. A spectrometer detected the turbidity, and the pH range of titration by a fast UV method was 2 to 12. The titration data was obtained from a proper titration and the psKa test result was obtained by Yasuda-Shedlovsky extrapolation method for fast UV psKa method.

The test system of series [2] is SARS-CoV-2 (Omicron, B.1.1.529). Particulars: Omicon, Vero E6, replicates.
For series [3], the system named is SARS-CoV-2 (strain B.1). Briefly: SARS-CoV-2 infection in Ad5-hACE2 mice. Format: in vivo, Ad5-hACE2 BALB/c mice.
Series [4] deals with SARS-CoV-2 (Omicron, B.1.1.529). Briefly: microbe, parasite or virus in culture. Particulars: for EC50: Severe acute respiratory syndrome coronavirus 2, Vero C1008, 48 h, read-out: EC50 in Vero E6 cells, SARS-CoV-2 (Omicron, B.1.1.529); for EC90: Severe acute respiratory syndrome coronavirus 2, Vero C1008, read-out: EC90 (Confidence 95%).
Series [5] relates to SARS-CoV-2 (strain B.1). Also noted: species or system KI-hACE2 mice. Particulars: mouse, in vivo.
Series [6] in a line: LogP determination (1-octanol/PBS pH 7.4). In kind it is physicochemical. Particulars: 1-octanol/PBS pH 7.4, pH 7.4. How it is done: The stock solutions of test compounds were prepared in DMSO to 10 mM or 30 mM. The 5 μL of stock solution (30 mM) or 15 μL of stock solution (10 mM) of each sample was placed into their proper 96-well rack. […] The assay was performed in duplicate. One stir stick was added to each vial and sealed with a molded PTFE/Silicone plug. […] After incubation, the stir sticks were removed by a magnet. To separate the phases, the samples were transferred and centrifuged at 25°C at 20,000 g for 20 min. The upper (1-octanol) and lower (buffer) phases were separated and transferred to the empty tubes. Aliquots of 5 μL were taken from the upper phase, followed by 495 μL of methanol. After 1 min of a vortex, aliquots of 50 μL were taken from the diluent, followed by 450 μL of methanol. Aliquots of 50 μL were taken from the lower phase, followed by 450 μL of methanol. The samples were evaluated by LC-MS/MS analysis, and all calculations were carried out using Microsoft Excel.

A short description of series [7]: Thermodynamic solubility in water. Format: physicochemical. Particulars: ultrapure water, 25°C. How it is done:
Test compounds were weighed out for measuring the solubility (about 1.5 mg each in three separate 1.5 mL glass vials). For each compound, one vial was used to do the standard and the other two were used to measure the solubility in duplicate. The proper volume of ultrapure water was added to each vial of the solubility sample plate using pipettes. One stir stick was added to each vial and the vials were sealed using a molded polytetrafluoroethylene (PTFE)/silicone plug. […] Then the stir sticks were removed using a magnet, and the samples were transferred from the solubility sample plate into a filter plate with pipettes. All compounds were filtered under a vacuum condition. The filtrate was diluted 1000-fold with a mixture of H2O and acetonitrile (1:1 in v/v). The plates were vortexed for 5 min. For standards (STD), the necessary volume was calculated to dissolve each standard sample to the concentration of 1.5 mg/mL. DMSO was added to each standard sample. The standard vials were covered. The standard plate was placed on the Eppendorf Thermomixer Comfort plate shaker for 5 min at 25°C and 1100 rpm. After 5 min, each compound was completely dissolved. […]

The conditions of series [8]: macaques, NCATS of NIH ref 47; cited from earlier work.
[9] abbreviates: Severe acute respiratory syndrome coronavirus 2, Vero C1008, Omicon, Vero E6, replicates.

On to `CC(C)C(=O)OC[C@H]1O[C@@](C#N)(c2ccc3c(N)ncnn23)[C@H](O)[C@@H]1O` [ATV006], for which the pKa (in general, the negative logarithm of the acid dissociation constant) in series [1] is 3.66. Also, the % Inhibition (commonly the drop in the measured response relative to a control, in per cent) was 43.9482% and 49.6397% in series [2] (0.069 uM); 71.5175% and 88.4612% in series [2] (0.208 uM); 99.4508% and 99.8921% in series [2] (0.625 uM); 99.9835% and 99.9391% in series [2] (2.5 uM); 99.9795% and 99.9931% in series [2] (5 uM); 99.9442% in series [2] (10 uM). For the same molecule, the “Lung viral titer, Log10 (FFU/g)” value with SARS-CoV-2 (strain B.1) [3] (250mg/kg orally once daily, 2 dpi, FFA, individual mice) is 3.924 Log10 (FFU/g) and 2.623 Log10 (FFU/g) and 3.577 Log10 (FFU/g) and 3.827 Log10 (FFU/g). In the series with SARS-CoV-2 (strain B.1) [3] (ATV006 250 mg/kg, EIDD-2801 500 mg/kg, orally once daily), the “viral load and pathological damage of the lung” value is “reduce the viral load and pathological damage of the lung”. Also, the concentration giving a half-maximal response (EC50) (commonly the midpoint of the concentration-response curve) in series [4] was determined as 106 nM. In addition, the inhibition (commonly the change of the read-out against control, counted positive when it falls) at 0.008 µM in series [4] (Severe acute respiratory syndrome coronavirus 2, Vero C1008, Omicon, 0.008 uM, Vero E6, replicates) is 0%. This molecule also came in with an inhibition at 0.208 µM in series [4] (Severe acute respiratory syndrome coronavirus 2, Vero C1008, Omicon, 0.208 uM, Vero E6, replicates) of 81.1%. This molecule showed an inhibition at 0.625 µM in series [4] (setting [9]) of 99.7%. For the same molecule, the inhibition at 2.5 µM in series [4] (setting [9]) was 99.9%. The molecule further displayed an inhibition at 5 µM in series [4] (setting [9]) of 100%. For the same molecule, at 10 µM the inhibition in series [4] (setting [9]) was 100%. The EC90 (as a rule, the point of the concentration-response curve where the effect stands at 90%) in series [4] is 269 nM. In addition, the “SARS-CoV-2 gRNA and sgRNA in lung” value with SARS-CoV-2 (strain B.1) [5] is reported as “hardly detectable”. Besides, the logP (commonly the decadic logarithm of the partition coefficient of the neutral form, usually between octanol and water) at 1 h in series [6] is 0.86. For the same molecule, the concentration in solution in series [7] (solubility at 24 h) came to 686 µg/mL (≈ 1900 µM).
As to `N#C[C@@]1(c2ccc3c(N)ncnn23)O[C@H](CO)[C@@H](O)[C@H]1O` [GS-441524, reference compound], in series [2] (0.208 uM), the “% Inhibition” value is 55.9865% and 27.3736% and 80.8013%. Also, in series [2] (0.625 uM), the “% Inhibition” value was 98.5871% and 97.6862%. In addition, the “% Inhibition” value in series [2] (2.5 uM) was 99.9728% and 99.9712%. For the same molecule, in series [2] (5 uM), the “% Inhibition” value is 99.9879% and 99.9871%. Further, in series [2] (10 uM), the “% Inhibition” value is 99.9637% and 99.9769%. In addition, in series [8], the oral bioavailability is 8.3%. Also, in series [4], the half-maximal effective concentration (EC50) is 190 nM and the EC90 stood at 363 nM. Further, in series [4] (Severe acute respiratory syndrome coronavirus 2, Vero C1008, Omicon, 0.069 uM, Vero E6, replicates), the inhibition at 0.069 µM came out at 0%. In series [4] (setting [9]), this molecule showed an inhibition at 0.625 µM of 96.5%, an inhibition at 2.5 µM of 100%, an inhibition at 5 µM of 100% and an inhibition at 10 µM of 100%.

The values are drawn from PMC9161374 (Science Translational Medicine, 2022).
